# Assay results published in PMC11989179, “Odor-Binding Protein 2 in Apis mellifera ligustica Plays Important Roles in the Response to Floral Volatiles Stimuli from Melon and Tomato Flowers” (International Journal of Molecular Sciences, 2025).
# What was measured:
# AmelOBP2 [1] = molecular target: T1, AmelOBP2 (Apis mellifera, UniProt A0A8U0WQ64); test: Fluorescence competitive binding assay with 1-NPN as probe; design: species or system Apis mellifera ligustica; conditions: for Ki: Ki = [IC50]/(1 + [1-NPN]/K1-NPN), read-out: Ki (binding constant); for IC50: odor standard concentration at which AmelOBP2/1-NPN fluorescence is reduced to half; for binding ability to AmelOBP2 (in words): fluorescence competitive binding
# Procedure: The binding ability of the recombinant protein AmelOBP2 to the 14 tomato and 25 melon floral volatiles was determined using a fluorescence competitive binding assay. The IC50 values of the odor standard compounds obtained from the fluorescence competitive binding curve (Figure 6) and the binding constant Ki between AmelOBP2 and the odor standard compounds are shown in Table 1.
# (§1) The ability of AmelOBP2 to bind to floral volatiles in tomato and melon greenhouses was determined using an RF-5301PC fluorescence spectrophotometer (Shimadzu, Japan) with […] (1-NPN) (TCI, Japan) as the fluorescence probe (Table A5). The parameters of the RF-5301PC fluorescence spectrophotometer are set as follows: the emission wavelength range is 360–500 nm, the excitation wavelength is 337 nm, and the slit width is 3 nm. This process was similar to that described by Du et al.. Data were processed using GraphPad Prism 8.0. The binding constant (Ki) of AmelOBP2 and odor volatiles were computed using the following equation [26]:Ki = [IC50]/(1 + [1-NPN]/K1-NPN)
# IC50 refers to the concentration of the odorant at which the fluorescence intensity of the AmelOBP2/1-NPN complex was reduced by 50%. 1-NPN refers to the concentration of unbound 1-NPN, while K1-NPN refers to the binding constant of the AmelOBP2/1-NPN complex. The smaller the Ki, the stronger the binding ability of the substance to the recombinant protein. Ki values ranging from 0 to 5µM indicate strong binding ability with AmelOBP2.
# AmelOBP2 [2] = molecular target: T1, AmelOBP2; test: Binding curve and Scatchard plot of fluorescence probe 1-NPN to recombinant AmelOBP2; design: species or system Apis mellifera ligustica; conditions: Scatchard plot; excitation 337 nm, emission maximum 405 nm; read-out: binding constant between AmelOBP2 and the probe
# Procedure: At an excitation wavelength of 337 nm, no clear fluorescence signal was observed from the AmelOBP2 protein working solution. By adding 3 μL of the 1-NPN solution to the protein working solution successively, the maximum fluorescence intensity was found at 405 nm, and the fluorescence intensity increased with the increase in the probe concentration. The resulting data were then fitted using regression and Scatchard processing to produce a combination curve and linear equation for AmelOBP2 and 1-NPN (Figure 5).
# as §1
# [3] = tested on: Apis mellifera ligustica antennae; test: Electroantennogram (EAG) response to compounds under RNAi silencing; format: in vivo; design: concentration or dose not given beside the values; conditions: decrease of EAG response in honeybees fed siAmelOBP2
# Excerpt: To clarify the physiological function of amelobp2 in the detection of floral volatiles in honeybees, we selected the following five volatiles: e-2-hexenal, e-2-octenal, 1-nonanal, 2-methyl-5-(1-methyl ethenyl)-cyclohexanone, and methyl benzene. Specifically, e-2-hexenal and e-2-octenal are volatiles of melon flowers; 2-methyl-5-(1-methyl ethenyl)-cyclohexanone and methyl benzene are volatiles of tomato flowers; and 1-nonanal is both a melon flower volatile and a tomato flower volatile. The antennal electrical activity of the honeybees was measured after feeding with siAmelOBP2.
# Based on the results of the fluorescence competitive binding tests and our previous research involving EAG tests, odor-standard compounds were identified for testing (Table A5). The optimal siRNA and silencing time were determined by an experiment and fed to honeybees. The EAG response was measured using an EAG insect antennal potential measurement system (Syntech, Netherlands). Each measurement was repeated using three antennae. The results of the antennal potential measurements were expressed as the EAG relative response value (rEAG), which was calculated as follows:rEAG = (EAG (X) − EAG (std))/EAG (std)(1)
# EAG (X) represents the response amplitude (mV) of the EAG to a given compound, while EAG (std) represents the response amplitude (mV) of the EAG to the reference liquid paraffin at each recording stage.
# AmelOBP2 mRNA = test: RNAi silencing effect on AmelOBP2 mRNA after siRNA feeding (qRT-PCR); format: in vivo, Apis mellifera ligustica; conditions: 8 μg per bee, 20-d-old honeybees
# Procedure: Total RNA and cDNA were obtained according to Du et al.. The obtained cDNA was subjected to qRT-PCR using the SYBR fluorescent dye method (Takara, Japan) (Table A1). The primers were synthesized by Sangon Biotech (Table A2). Data processing refers to Livak and Schmittgen (2^−ΔΔCt method).
# Honeybees were collected at 20 d of age from an apiary at the College of Animal Science, Shanxi Agricultural University. Honeybees were randomly divided into 4 groups (n = 40) and starved in an incubator for 30 min (65–70% relative humidity; 28 ± 1 °C). Honeybees were fed with siAmelOBP2 (8 μg per bee dissolved in sucrose solution); the siAmelOBP2 are recorded as siAmelOBP2-1 (79 bp) and siAmelOBP2-2 (329 bp). We used siNC and 30% sucrose solution as the controls. After feeding, the honeybees were placed back in the incubator. At 24, 48, 72, and 96 h, the honeybees were captured randomly in each group, and the silencing effect of RNAi was assessed using qRT-PCR.
# T1 sequence (A0A8U0WQ64 entry or part of it): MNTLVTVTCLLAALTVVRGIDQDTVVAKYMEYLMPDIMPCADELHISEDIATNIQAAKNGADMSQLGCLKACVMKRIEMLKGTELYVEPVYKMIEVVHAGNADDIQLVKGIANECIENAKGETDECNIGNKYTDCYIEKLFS
Compound,Ki (AmelOBP2 [1]),IC50 (AmelOBP2 [1]),also measured
"CC=Cc1ccc(OC)c(OC)c1 [1,2-dimethoxy-4-(1-propenyl)-benzene]",7.68 µM,17.2 µM,–
"CC(C)(C)c1cccc(C(C)(C)C)c1 [1,3-bis (1,1-dimethyl ethyl)-benzene]",2.85 µM,6.37 µM,–
"Cc1cccc(C)c1 [1,3-dimethyl-benzene]",11 µM,24.6 µM,–
c1ccc(Nc2cccc3ccccc23)cc1 [1-NPN],–,–,Kd (AmelOBP2 [2]): 2 µM
C=C(C)c1ccc(C)cc1 [1-methyl-4-(1-methylethenyl)-benzene],6.23 µM,13.9 µM,–
CCCCCCCCC=O [1-nonanal],5.26 µM,11.8 µM,Silencing Efficiency (EAG response) [3]: 37.28%
"CC(C)C(=O)OCC(C)(C)C(OC(=O)C(C)C)C(C)C (centres unmarked) [2,2,4-trimethyl-1,3-pentanediol diisobutyrate]",4.92 µM,11 µM,–
"Cc1ccc(C)c(C=O)c1 [2,5-dimethyl-benzaldehyde]",7.12 µM,15.9 µM,–
C=C(C)C1CCC(C)C(=O)C1 (centres unmarked) [2-methyl-5-(1-methylethenyl)-cyclohexanone],6.03 µM,13.5 µM,Silencing Efficiency (EAG response) [3]: 32.48%
"C=CC(C)(O)CCC=C(C)C (centres unmarked) [3,7-dimethyl-1,6-octadien-3-ol]",7.01 µM,15.7 µM,–
CC1=CC(=O)C(C(C)C)CC1 (centres unmarked) [3-methyl-6-(1-methylethyl)-2-cyclohexen-1-one],11.2 µM,25 µM,–
CCCCCC=CC(C)=O [3-nonen-2-one],4.3 µM,9.63 µM,–
O=CC=Cc1ccccc1 [3-phenyl-2-propenal],5.69 µM,12.7 µM,–
C=CC(=C)CCCC(=C)C [alpha-myrcene],2.76 µM,6.18 µM,–
O=Cc1ccccc1 [benzaldehyde],3.74 µM,8.37 µM,–
O=CCc1ccccc1 [benzeneacetaldehyde],4.55 µM,10.2 µM,–
O=CCCc1ccccc1 [benzenepropanal],7.3 µM,16.3 µM,–
CCCCCCCCCC=O [decanal],3.72 µM,8.32 µM,–
COC(=O)c1ccccc1C(=O)OC [dimethyl phthalate],5.54 µM,12.4 µM,–
CCCCCCCCCCCC=O [dodecanal],1.05 µM,2.35 µM,–
CCCCCCC/C=C/C=O [e-2-decenal],2.42 µM,5.41 µM,–

Compound,Ki (AmelOBP2 [1]),IC50 (AmelOBP2 [1]),also measured
CCC/C=C/C=O [e-2-hexenal],2.83 µM,6.33 µM,Silencing Efficiency (EAG response) [3]: 34.64%
CCCCC/C=C/C=O [e-2-octenal],7.45 µM,16.7 µM,Silencing Efficiency (EAG response) [3]: 55.20%
CC1=CCC(C(C)C)=CC1 [gamma-terpinene],4.16 µM,9.31 µM,–
CCCCCCCCCCCCCCCCCCCCC [heneicosane],21.7 µM,48.6 µM,binding ability to AmelOBP2 (in words) (AmelOBP2 [1]): relatively weak binding ability
CCCCCCCCCCCCCCCCC [heptadecane],16.7 µM,37.3 µM,–
CCCCCCCCCCCCCCCC [hexadecane],30.6 µM,68.6 µM,binding ability to AmelOBP2 (in words) (AmelOBP2 [1]): relatively weak binding ability
"CCCCCCCCCCCCCCCC(=O)OCC [hexadecanoic acid, ethyl ester]",12.8 µM,28.8 µM,binding ability to AmelOBP2 (in words) (AmelOBP2 [1]): exhibited binding ability
Cc1ccccc1 [methyl benzene],8.3 µM,18.6 µM,Silencing Efficiency (EAG response) [3]: 28.76%
CCCCCCCCCCCCCCCC(=O)OC [methyl palmitate],–,–,binding ability to AmelOBP2 (in words) (AmelOBP2 [1]): exhibited binding ability
CCCCCCCCCCCCCCCCCCC [nonadecane],14.7 µM,33 µM,–
Cc1ccc(C(C)C)cc1 [p-cymene],3.58 µM,8.02 µM,–
CCCCCCCCCCCCCCCCCCCCCCCC [tetracosane],13.2 µM,29.6 µM,–
CCCCCCCCCCCCCC [tetradecane],8.06 µM,18 µM,–
CC(=O)/C=C/C1=C(C)CCCC1(C)C [trans-β-ionone],4.21 µM,9.43 µM,–
C=C1CC/C=C(\C)CC[C@@H]2[C@@H]1CC2(C)C [β-caryophyllene],4.84 µM,10.8 µM,–
C=C/C(C)=C/CC=C(C)C [β-ocimene],3.75 µM,8.4 µM,–
hexadecenoic acid,5.29 µM,11.8 µM,–
phytol,16.2 µM,36.3 µM,–
"siAmelOBP2-1: siRNA against AmelOBP2 (79 bp); F: GCAAAGUACAUGGAGUAUUTT, R: AAUACUCCAUGUACUUUGCTT (chemistry not given here)",–,–,silencing efficiency (AmelOBP2 mRNA) (AmelOBP2 mRNA; 72 h after siRNA feeding): 62.86%
"siAmelOBP2-2: siRNA against AmelOBP2 (329 bp); F: GGAUCGCGAAUGAGUGCAUTT, R: AUGCACUCAUUCGCGAUCCTT (chemistry not given here)",–,–,silencing efficiency (AmelOBP2 mRNA) (AmelOBP2 mRNA; 24 h after siRNA feeding): 58.87%; silencing efficiency (AmelOBP2 mRNA) (AmelOBP2 mRNA; 48 h after siRNA feeding): 47.35%; silencing efficiency (AmelOBP2 mRNA) (AmelOBP2 mRNA; 72 h after siRNA feeding): 79.83%; silencing efficiency (AmelOBP2 mRNA) (AmelOBP2 mRNA; 96 h after siRNA feeding): 67.19%
